In patent US20190133518A1, “METHODS AND SYSTEMS FOR DETERMINING DIURETIC RESPONSE PROFILES” (PACESETTER, INC., priority 2017, published 2019):

Test system: patient
Test: Mean PAP measurements of a patient before and after taking medication (Example 1, medication modification)
Format: in vivo
Text: In accordance with the present disclosure, an exemplary embodiment is as follows. A patient implanted with CARDIOMEMS, instead of simply providing a single reading each day, provides a reading twice a week (or daily) via the following protocol: First, the patient wakes up in the morning and takes a PAP reading (prior to any medication ingestion). Immediately thereafter, the patient takes all medications, which include HF medications including diuretic(s). A timer goes off in the bed-side monitor (patient home electronics unit), and about sixty minutes later, the patient takes another PAP recording. As noted elsewhere throughout this disclosure, the timing between readings is variable.
The protocol based recordings are marked with a unique identifier and transmitted to a database (e.g., Merlin.net database). The protocol based PAP recordings are then used to determine the diuretic response profile of the patient. Specifically, the response profile is determined using PAP measurement data-points at time […] (pre medication) and time (t2) (“x” minutes after medication) and the time constant of the specific diuretic via, for example, a polynomial regression fit. For example, the time constant of furosemide is shorter than the longer acting thiazide diuretic.
This example examined the characterization/determination of medication dosage and temporal response in a patient given different kinds of medication. […] The mean PAP measurement of the patient at time (t1) was about 35 mmHg. […].

## NS(=O)(=O)c1cc(C(=O)O)c(NCc2ccco2)cc1Cl [furosemide]
Week 1, 80 mg furosemide, about 1 hour after medication (FIG. 6A)
  average PAP measurement at time (t2): about 19 mmHg
Week 1, 80 mg furosemide, about 2 hours after medication (FIG. 6A)
  mean PAP measurement at time (t3): about 21 mmHg
Week 1, 80 mg furosemide, t1 prior to medication (FIG. 6A)
  mean PAP measurement at time (t1): about 35 mmHg
Week 2, 80 mg furosemide (FIG. 6B)
  mean PAP measurements at time (t2) and time (t3) compared with week 1: similar
Week 2, 80 mg furosemide, after medication (FIG. 6B)
  mean PAP measurement after medication: about 19 mmHg
Week 2, 80 mg furosemide, t1 prior to medication (FIG. 6B)
  mean PAP measurement at time (t1): about 31 mmHg
Week 10, 80 mg furosemide (FIG. 6C)
  diuretic profile in the patient: early signs of developing diuretic resistance
Week 10, 80 mg furosemide, prior to ingestion of the medication (FIG. 6C)
  mean PAP measurement at time (t1): about 31 mmHg
Week 10, 80 mg furosemide, time (t2) and time (t3) (FIG. 6C)
  mean PAP measurement after medication: about 27 mmHg
